Drawing on patent publication US20060128724A1, “Pyrazole-substituted aminoheteroaryl compounds as protein kinase inhibitors” (AGOURON PHARMACEUTICALS, INC., priority 2004, published 2006), this text covers Ki for 22 molecules.

T1 sequence (P08581 974-1390 limits assumed): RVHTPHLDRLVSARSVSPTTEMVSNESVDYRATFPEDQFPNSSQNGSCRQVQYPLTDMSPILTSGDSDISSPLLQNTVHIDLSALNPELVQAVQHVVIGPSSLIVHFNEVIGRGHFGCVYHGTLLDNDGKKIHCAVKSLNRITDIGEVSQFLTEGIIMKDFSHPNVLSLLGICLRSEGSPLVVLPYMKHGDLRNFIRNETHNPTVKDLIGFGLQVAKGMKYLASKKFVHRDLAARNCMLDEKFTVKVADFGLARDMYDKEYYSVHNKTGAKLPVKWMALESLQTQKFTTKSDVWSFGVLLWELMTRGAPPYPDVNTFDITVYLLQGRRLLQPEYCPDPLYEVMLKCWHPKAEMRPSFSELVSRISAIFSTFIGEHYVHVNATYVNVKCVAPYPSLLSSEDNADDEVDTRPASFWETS

The first test concerns the target T1, c-MET (HGFR) (Homo sapiens, UniProt P08581).
T1 construct: purchased Upstate 14-526
Nature of the test: HGFR Continuous-Coupled Spectrophotometric Assay. It is filed as biochemical. To be noted: Met-2 substrate peptide, 50 nM HGFR, 37° C.; read-out: Met Ki. A digest of the protocol:
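Tyrosine kinase activity of 50 nM HGFR on the activation-loop Met-2 peptide, followed as NADH consumption at 340 nm over 10 min at 37 °C in a pyruvate kinase/LDH coupled system, HEPES pH 7.5 buffer with MgCl2 and DTT.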
On to `CC(Oc1cc(-c2cnn(C3CCN(C(=O)CN4CCCC4)CC3)c2)cnc1N)c1c(Cl)ccc(F)c1Cl` (stereo not shown) [Example 125, 1-[4-(4-{6-Amino-5-[1-(2,6-dichloro-3-fluoro-phenyl)-ethoxy]-pyridin-3-yl}-pyrazoI-1-yl)-piperidin-1-yl]-2-pyrrolidin-1-yl-ethanone], for which the Ki amounted to 14 nM.

Take `CC(Oc1cc(-c2cnn(C3CCNCC3)c2)cnc1N)c1c(Cl)c(F)cc(N(C)C)c1Cl` (stereo not shown) [Example 150, 3-[1-(2,6-Dichloro-3-dimethylamino-5-fluoro-phenyl)-ethoxy]-5-(1-piperidin-4-yl-1H-pyrazol-4-yl)-pyridin-2-ylamine]: the Ki stood at 163 nM.

On to `COc1cc(F)c(Cl)c(C(C)Oc2cc(-c3cnn(C4CCNCC4)c3)cnc2N)c1Cl` (stereo not shown) [Example 148, 3-[1-(2,6-Dichloro-3-fluoro-5-methoxy-phenyl)-ethoxy]-5-(1-peridin-4-yl-1H-pyrazol-4-yl)-pyridin-ylamine], for which the Ki was 23 nM.

The test is the same for the next values; noted with them: Met-2 substrate peptide, 50 nM HGFR, 37° C.; read-out: c-Met Ki.
`CC(Oc1cc(-c2cnn(C3CN(CC4CC4)C3)c2)cnc1N)c1c(Cl)ccc(F)c1Cl` (stereo not shown) [Example 6, 5-{1-[1-(cyclopropylmethyl)azetidin-3-yl]-1H-pyrazol-4-yl}-3-[1-(2,6-dichloro-3-fluorophenyl)ethoxy]pyridin-2-amine]: the Ki was determined as 38 nM.

For the molecule `Cc1nn(C(C)(C)C(=O)O)cc1-c1cnc(N)c(OC(C)c2c(Cl)ccc(F)c2Cl)c1` (stereo not shown) [Example 33, 2-(4-{6-Amino-5-[1-(2,6-dichloro-3-fluoro-phenyl)-ethoxy]-pyridin-3-yl}-3-methyl-pyrazol-1-yl)-2-methyl-propionic acid], the Ki was found to be 130 nM.

In the case of `CC(Oc1cc(-c2cnn(C3CN(S(C)(=O)=O)C3)c2)cnc1N)c1c(Cl)ccc(F)c1Cl` (stereo not shown) [Example 104, 3-[1-(2,6-dichloro-3-fluorophenyl)ethoxy]-5-{1-[1-(methylsulfonyl)azetidin-3-yl]-1H-pyrazol-4-yl}pyridin-2-amine], the Ki turned out to be 36 nM.

With `CC(Oc1cc(-c2cnn(CC3CCN(C)CC3)c2)cnc1N)c1c(Cl)ccc(F)c1Cl` (stereo not shown) [Example 89, 3-[1-(2,6-Dichloro-3-fluoro-phenyl)-ethoxy]-5-[1-(1-methyl-piperidin-4-ylmethyl)-1H-pyrazol-4-yl]-pyridin-2-ylamine], the Ki came to 24 nM.

Consider `CC(Oc1cc(-c2cnn(CC3(O)CCN(C(=O)OC(C)(C)C)CC3)c2)cnc1N)c1c(Cl)ccc(F)c1Cl` (stereo not shown) [Example 3, tert-butyl 4-[(4-{6-amino-5-[1-(2,6-dichloro-3-fluorophenyl)ethoxy]pyridin-3-yl}1H-pyrazol-1-yl)methyl]-4-hydroxypiperidine-1-carboxylate], for which the Ki amounted to 104 nM.

On to `CC(Oc1cc(-c2cnn(C3CCS(=O)(=O)CC3)c2)cnc1N)c1c(Cl)ccc(F)c1Cl` (stereo not shown) [Example 116, 3-[1-(2,6-dichloro-3-fluorophenyl)ethoxy]-5-[1-(1,1-dioxidotetrahydro-2H-thiopyran-4-yl)-1H-pyrazol-4-yl]pyridin-2-amine], for which the Ki was 17 nM.

Turning to `CC(Oc1cc(-c2cnn(C3CCN(C)CC3)c2)cnc1N)c1c(Cl)ccc(F)c1Cl` (stereo not shown) [Example 39, 3-[1-(2,6-Dichloro-3-fluoro-phenyl)-ethoxy]-5-[1-(1-methyl-piperidin-4-yl)-1H-pyrazol-4-yl]-pyridin-2-ylamine], the Ki came to 10 nM.

On to `CC(Oc1cc(-c2cnn(C[C@@H]3CCCN3)c2)cnc1N)c1c(Cl)ccc(F)c1Cl` (stereo partly drawn) [Example 64, 3-[1-(2,6-Dichloro-3-fluoro-phenyl)-ethoxy]-5-(i-(S)-1-pyrrolidin-2-ylmethyl-1H-pyrazol-4-yl)-pyridin-2-ylamine], for which the Ki was 41.5 nM.

Regarding `CC(Oc1cc(-c2cnn(C(C)(C)C(=O)N3CC[C@@H](O)C3)c2)cnc1N)c1c(Cl)ccc(F)c1Cl` (stereo partly drawn) [Example 18, 2-(4-{6-Amino-5-[1-(2,6-dichloro-3-fluoro-phenyl)-ethoxy]-pyridin-3-yl}-pyrazol-1-yl)-1-((R)-3-hydroxy-pyrrolidin-1-yl)-2-methyl-propan-1-one], the Ki was found to be 270 nM.

As to `CC(Oc1cc(-c2cnn(C(C)(C)C(=O)NCCCO)c2)cnc1N)c1c(Cl)ccc(F)c1Cl` (stereo not shown) [Example 32, 2-(4-{6-Amino-5-[1-(2,6-dichloro-3-fluoro-phenyl)-ethoxy]-pyridin-3-yl}-pyrazol-1-yl)-N-(3-hydroxy-propyl)-isobutyramide], the Ki worked out at 70 nM.

On to `CC(Oc1cc(-c2cnn(C(C)(C)CN3CC[C@H](O)C3)c2)cnc1N)c1c(Cl)ccc(F)c1Cl` (stereo partly drawn) [Example 61, (S)-1-[2-(4-{6-Amino-5-[1-(2,6-dichloro-3-fluoro-phenyl)-ethoxy]-pyridin-3-yl}-pyrazol-1-yl)-2-methyl-propyl]-pyrrolidin-3-ol], for which the Ki was found to be 70 nM.

Take `CNC(=O)[C@H]1C[C@@H]1Cn1cc(-c2cnc(N)c(OC(C)c3c(Cl)ccc(F)c3Cl)c2)cn1` (stereo in doubt) [Example 10, 2-[(4-{6-amino-5-[1-(2,6-dichloro-3-fluorophenyl)ethoxy]pyridin-3-yl}-1H-pyrazol-1-yl)methyl]-N-methylcyclopropanecarboxamide]: the Ki was found to be 71 nM.

Regarding `CNCCn1cc(-c2cnc(N)c(OC(C)c3c(Cl)ccc(F)c3Cl)c2)cn1` (stereo not shown) [Example 73, 3-[1-(2,6-Dichloro-3-fluoro-phenyl)-ethoxy]-5-[1-(2-methylamino-ethyl)-1H-pyrazol-4-yl]-pyridin-2-ylamine], the Ki worked out at 55 nM.

Consider `CC(Oc1cc(-c2cnn(C(C)(C)C(=O)N(C)C)c2)cnc1N)c1c(Cl)ccc(F)c1Cl` (stereo not shown) [Example 58, 2-(4-{6-Amino-5-[1-(2,6-dichloro-3-fluoro-phenyl)-ethoxy]-pyridin-3-yl}-pyrazol-1-yl)-N,N-dimethyl-isobutyramide], for which the Ki was 125 nM.

With `CC(Oc1cc(-c2cnn(C(C)(C)C(=O)NCCN3CCOCC3)c2)cnc1N)c1c(Cl)ccc(F)c1Cl` (stereo not shown) [Example 19, 2-(4-{6-Amino-5-[1-(2,6-dichloro-3-fluoro-phenyl)-ethoxy]-pyridin-3-yl}-pyrazol-1-yl)-N-(2-morpholin-4-yl-ethyl)-isobutyramide], the Ki amounted to 140 nM.

Regarding `CC(Oc1cc(-c2cnn(CC3CCNCC3)c2)cnc1N)c1c(Cl)ccc(F)c1Cl` (stereo not shown) [Example 81, 3-[1-(2,6-Dichloro-3-fluoro-phenyl)-ethoxy]-5-(1-piperidin-4-ylmethyl-1H-pyrazol-4-yl)-pyridin-2-ylamine], the Ki came to 56 nM.

Consider `CCN(CC)CCNC(=O)C(C)(C)n1cc(-c2cnc(N)c(OC(C)c3c(Cl)ccc(F)c3Cl)c2)cn1` (stereo not shown) [Example 24, 2-(4-{6-Amino-5-[1-(2,6-dichloro-3-fluoro-phenyl)-ethoxy]-pyridin-3-yl}pyrazol-1-yl)-N-(2-diethylamino-ethyl)-isobutyramide], for which the Ki came to 220 nM.

Turning to `CC(Oc1cc(-c2cnn(CC3CCN(C(=O)CO)CC3)c2)cnc1N)c1c(Cl)ccc(F)c1Cl` (stereo not shown) [Example 85, 1-[4-(4-{6-Amino-5-[1-(2,6-dichloro-3-fluoro-phenyl)-ethoxy]-pyridin-3-yl}-pyrazol-1-ylmethyl)-piperidin-1-yl]-2-hydroxy-ethanone], the Ki was determined as 30 nM.

For the molecule `C[C@@H](Oc1cc(-c2cnn(C3CCNCC3)c2)cnc1N)c1c(F)ccc(F)c1Cl` [Example 72, 3-[(R)-1-(2-Chloro-3,6-difluoro-phenyl)-ethoxy]-5-(1-piperidin-4-yl-1H-pyrazol-4-yl)-pyridin-2-ylamine], the Ki was found to be 90 nM.
